The values below come from the supplement of paper PMC4862054.

Holding throughout (assay): drug sensitivity score (DSS), CellTiter-Glo (DSS (AUC-based score)); higher = stronger drug effect (viability inhibition or cytotoxicity); extreme values may be limits of the assay
What all share (conditions): incubation time: 72 h

Experiment [1] concerns BT-549. A digest of the protocol: (§1)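 Using 20 µl of cell suspension per well, breast cancer cell lines were seeded into 384-well plates pre-loaded with compound at 5 concentrations in 10-fold steps across a compound-specific 10,000-fold range. Incubation lasted 72 h, after which CellTox Green fluorescence at 485/520 nm and then CellTiter-Glo luminescence, following 10 min at room temperature, were recorded. Each plate was normalised to 0.1 % DMSO and a positive kill control before the drug sensitivity score was derived from the area under the fitted dose-response curve.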

In experiment [2] the test system is CAL-120. In a few lines: as §1
Experiment [3] has as its system CAL-148. In a few lines: as §1
In experiment [4] the test system is CAL-51. In a few lines:
as §1

Experiment [5] deals with CAL-85-1. A digest of the protocol:
as §1

Experiment [6] deals with DU-4475. In a few lines:
as §1

Experiment [7] relates to HCC1599. A digest of the protocol:
as §1

Experiment [8] concerns Hs578T. In a few lines: as §1
Experiment [9] has as its system MDA-MB-436. A digest of the protocol: as §1
Experiment [10] has as its system MDA-MB-453. A digest of the protocol: as §1
For experiment [11], the system named is MDA-MB-468. A digest of the protocol: as §1
Experiment [12] has as its system MFM-223. In a few lines: as §1
Experiment [13] has as its system SK-BR-3. In a few lines: as §1

Turning to `C[C@]12C=CC(=O)C=C1CC[C@@H]1[C@@H]2C(=O)C[C@@]2(C)[C@H]1CC[C@]2(O)C(=O)CO` [Prednisone], the drug sensitivity score is 0 in experiment [1]; 0.925 in [2]; 0 in experiment [3]; 0 in experiment [4]; 0 in experiment [5]; 0 in [6]. Moreover, the drug sensitivity score in [7], in experiment [8], in experiment [9], in [10], in experiment [11] and in [12] was 0 in each case. Further, the drug sensitivity score in [13] came out at 0.

In the case of `CO[C@H]1C[C@@H]2CC[C@@H](C)[C@@](O)(O2)C(=O)C(=O)N2CCCC[C@H]2C(=O)O[C@H]([C@H](C)C[C@@H]2CC[C@@H](O)[C@H](OC)C2)CC(=O)[C@H](C)/C=C(\C)[C@@H](O)[C@@H](OC)C(=O)[C@H](C)C[C@H](C)/C=C/C=C/C=C/1C` [Sirolimus], the drug sensitivity score is 9.21 in [1]; 6 in experiment [2]; 6.47 in experiment [3]; 7.01 in [4]; 8.85 in experiment [5]; 1.94 in experiment [6]. Besides, the drug sensitivity score amounted to 0 in experiment [7]; 7.08 in experiment [8]; 3.52 in [9]; 6.86 in experiment [10]; 12.2 in [11]; 5.41 in [12]. Besides, in [13], the drug sensitivity score stood at 5.69.

On to `CN1CCN(c2nc(C3=C(c4c[nH]c5ccccc45)C(=O)NC3=O)c3ccccc3n2)CC1` [Sotrastaurin], for which the drug sensitivity score worked out at 0 in [1]; 0 in experiment [2]; 0 in [3]; 0 in [4]; 0 in experiment [5]; 1.72 in experiment [6]. Also, the drug sensitivity score in experiment [7], in [8], in experiment [9], in experiment [10], in experiment [11] and in experiment [12] was 0 in each case. The drug sensitivity score in [13] turned out to be 1.56.

`CC/C(=C(\c1ccccc1)c1ccc(OCCN(C)C)cc1)c1ccccc1` [Tamoxifen]: the drug sensitivity score in [1] was found to be 0; in experiment [2], 0.0022; in experiment [3], 0; in experiment [4], 4.03; in experiment [5] it was 0; in experiment [6], 0. In addition, the drug sensitivity score in experiment [7] turned out to be 0; in [8] it was 0; in experiment [9], 0; in experiment [10], 5.28; in [11] it was 0; in experiment [12], 1.68. Further, the drug sensitivity score in [13] worked out at 1.07.

Regarding `COc1cc2c(N3CCN(C(=O)Nc4ccc(OC(C)C)cc4)CC3)ncnc2cc1OCCCN1CCCCC1` [Tandutinib], the drug sensitivity score in experiment [1], in experiment [2], in experiment [3], in experiment [4], in experiment [5] and in experiment [6] was 0 in each case. The drug sensitivity score in experiment [7], in [8], in experiment [9], in experiment [10], in experiment [11] and in experiment [12] was 0 in each case. This molecule also registered a drug sensitivity score in [13] of 0.

With `C[C@@H](C(=O)O)c1ccc(-c2ccccc2)c(F)c1` [Tarenflurbil], the drug sensitivity score in experiment [1], in experiment [2], in experiment [3], in experiment [4], in experiment [5] and in experiment [6] was 0 in each case. Also, the drug sensitivity score in experiment [7], in [8], in experiment [9], in [10], in experiment [11] and in [12] was 0 throughout. The drug sensitivity score in experiment [13] was found to be 0.

Take `Cn1nnc2c(C(N)=O)ncn2c1=O` [Temozolomide]: the drug sensitivity score in [1], in [2], in experiment [3], in experiment [4], in experiment [5] and in [6] was 0 in each case. For the same molecule, the drug sensitivity score in experiment [7], in [8], in experiment [9], in experiment [10], in experiment [11] and in experiment [12] was 0 each time. In experiment [13], this molecule showed a drug sensitivity score of 0.

For the molecule `CN1CCc2c(c3ccccc3n2Cc2ccc(C(=O)NO)cc2)C1` [Tubastatin A], the drug sensitivity score in [1] was 0.314; in [2] it was 0; in experiment [3], 0; in [4] it was 11.2; in [5], 0.989; in [6] it was 0. Also, the drug sensitivity score in experiment [7], in experiment [8], in experiment [9], in experiment [10], in [11] and in [12] was 0 in each case. The drug sensitivity score in [13] came out at 1.22.

In the case of `CC[C@@H]1C(=O)N(C)c2cnc(Nc3ccc(C(=O)N[C@H]4CC[C@H](N5CCN(CC6CC6)CC5)CC4)cc3OC)nc2N1C(C)C` [Volasertib], the drug sensitivity score turned out to be 15.1 in [1]; 7.64 in [2]; 4.27 in experiment [3]; 16.3 in [4]; 12.6 in experiment [5]; 8.16 in experiment [6]. The drug sensitivity score in [7] stood at 10.3; in [8], 9.68; in [9], 12.9; in [10] it was 12; in [11], 14.8; in [12] it was 15.5. Also, the drug sensitivity score in [13] is 19.9.
